Article PMC11649397, “The study of halogen effect on the reactivity of the serine-targeting covalent warheads” (Frontiers in Chemistry, 2024)

Molecular target: T1, human pancreatic lipase (hPL) (Homo sapiens, UniProt P16233)
T1 sequence (P16233 17-465): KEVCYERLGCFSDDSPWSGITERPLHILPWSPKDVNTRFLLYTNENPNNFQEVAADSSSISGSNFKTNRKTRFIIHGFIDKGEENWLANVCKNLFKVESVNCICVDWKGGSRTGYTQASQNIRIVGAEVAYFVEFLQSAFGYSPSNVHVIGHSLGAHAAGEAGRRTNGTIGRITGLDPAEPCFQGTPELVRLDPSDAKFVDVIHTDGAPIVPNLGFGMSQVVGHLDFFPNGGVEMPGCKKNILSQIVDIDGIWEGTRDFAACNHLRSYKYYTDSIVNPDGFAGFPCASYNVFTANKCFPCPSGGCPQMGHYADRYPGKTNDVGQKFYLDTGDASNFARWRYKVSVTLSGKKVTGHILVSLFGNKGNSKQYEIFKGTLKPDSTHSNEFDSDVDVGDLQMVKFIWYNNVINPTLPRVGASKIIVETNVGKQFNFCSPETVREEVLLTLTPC
Assay: Inhibition assay on human pancreatic lipase (substrate DDAO-ol)
Format: biochemical
Conditions: 10 μM, selectivity screening
Source text: 1. Detailed experimental, materials, and methods
The household library of covalent fragments including D and F was from Organic Chemistry […]
Fig. S1. Partial fragment molecules of a household library targeting to serine.
Commercially available materials were ordered from commercial suppliers (Bidepharm, Shanghai, China) and used without further purification. Structures were checked by 1H- and 13C-NMR spectra on a Bruker AVANCE 600/125 MHz instrument for confirmation, using DMSO- d6 or CDCl 3 as the solvent. Molecular orbitals were calculated using Gaussian 09W and image generated by GaussView 6.0.1
Inhibition assay on hCES1A
In this study, a known bioluminogenic probe substrate NLMe was used for human carboxylesterase 1 (hCES1A) inhibition assays. […]
The luminescence signals were monitored in the microplate reader (SpectraMax iD3Molecular […]
Human carboxylesterase 2 (hCES2A) inhibition assays were conducted using FD, a known fluorescent substrate. […] The fluorescent signals (excitation/emission, 480 nm/525 nm) were continuously recorded by a microplate reader (SpectraMax iD3Molecular Devices, Austria). […]
fluorogenic probe. […] The fluorescent signals of hydrolytic product were quantified by using the microplate reader (Spectra Max M4, Austria), with the wavelength of 600 nm and 660 nm for excitation and emission, respectively. […]

Compound | response to hPL
O=S(=O)(F)c1ccc(Br)cc1 [D, 4-bromobenzenesulfonyl fluoride] | no potent responses
O=C(c1ccccc1)C(F)(F)F [F, 2,2,2-trifluoroacetophenone] | no potent responses
